Results as given in ChEMBL document CHEMBL2331557, “Antidepressant abietane diterpenoids from Chinese eaglewood” (J Nat Prod, 2013).

tested on: not listed separately; assay: Inhibition of [3H]NE reuptake at NET in rat brain synaptosomes; assay type: subcellular

**Q.** With `CC(C)[C@@]1(O)C=C2[C@H](O)C[C@H]3[C@](C)(C(=O)O)CCC[C@]3(C)[C@@]2(O)CC1` [AQUILARABIETIC ACID A] as the compound, how does the IC50 read?
**A.** Its IC50 is 910 nM.

target: Sodium-dependent serotonin transporter (Rattus norvegicus, UniProt P31652); assay: Inhibition of [3H]5-HT reuptake at SERT in rat brain synaptosomes; assay type: subcellular
Sequence (P31652 whole entry): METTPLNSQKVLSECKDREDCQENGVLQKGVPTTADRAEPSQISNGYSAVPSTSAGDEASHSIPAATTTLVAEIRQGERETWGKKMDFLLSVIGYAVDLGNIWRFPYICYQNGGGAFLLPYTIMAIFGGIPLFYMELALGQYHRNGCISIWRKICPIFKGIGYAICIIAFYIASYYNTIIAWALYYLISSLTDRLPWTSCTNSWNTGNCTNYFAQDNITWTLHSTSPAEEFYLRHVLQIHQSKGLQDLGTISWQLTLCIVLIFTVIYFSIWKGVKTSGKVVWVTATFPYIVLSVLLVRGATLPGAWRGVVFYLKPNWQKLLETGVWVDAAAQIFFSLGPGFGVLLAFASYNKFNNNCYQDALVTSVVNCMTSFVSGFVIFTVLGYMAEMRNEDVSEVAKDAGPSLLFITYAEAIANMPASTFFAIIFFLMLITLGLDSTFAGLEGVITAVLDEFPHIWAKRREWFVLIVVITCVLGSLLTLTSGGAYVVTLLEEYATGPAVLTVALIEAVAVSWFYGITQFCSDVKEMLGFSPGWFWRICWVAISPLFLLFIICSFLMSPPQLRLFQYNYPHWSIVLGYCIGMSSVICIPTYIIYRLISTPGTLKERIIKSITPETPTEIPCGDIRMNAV

**Q.** With `CC(C)[C@@]1(O)C=C2[C@H](O)C[C@@H]3[C@](C)(CCC[C@@]3(C)C(=O)O)[C@H]2C[C@@H]1O` [AQUILARABIETIC ACID B] as the compound, how does the IC50 read?
**A.** The IC50 was 3200 nM.

species on record: Rattus norvegicus; assay: Inhibition of [3H]NE reuptake at NET in rat brain synaptosomes at 10 uM; assay type: subcellular

**Q.** Which inhibition does the source give for `CC(C)(O)[C@]1(O)CCC2=C(C(=O)C[C@H]3[C@](C)(C(=O)O)CCC[C@]23C)[C@H]1O` here?
**A.** Its inhibition is 0%.

**Q.** For `COC(C)(C)c1ccc2c(c1)[C@H](O)C[C@H]1[C@](C)(C(=O)O)CCC[C@]21C`, which inhibition is on record?
**A.** Its inhibition is 70.4%.

**Q.** Which inhibition does the source give for `CC(C)[C@]1(O)C=C2[C@H](O)C[C@@H]3[C@](C)(CCC[C@@]3(C)C(=O)O)[C@H]2C[C@H]1O` here?
**A.** The inhibition was 34.4%.

**Q.** Which inhibition does the source give for `CC(C)[C@@]12CC[C@H]3C(=C[C@@H]4OC(=O)[C@]5(C)CCC[C@@]3(C)[C@@H]45)[C@@H]1O2` here?
**A.** Its inhibition is 8.1%.

**Q.** For `C=C(C)c1ccc2c(c1)[C@H](O)C[C@H]1[C@](C)(C(=O)O)CCC[C@]21C`, which inhibition is on record?
**A.** Its inhibition is 73.8%.

**Q.** With `C[C@]12CCC[C@@](C)(C(=O)O)[C@@H]1CC(=O)C1CC(=O)CC[C@@H]12` (some centres undefined) as the compound, how does the inhibition read?
**A.** The inhibition was 18.9%.

**Q.** With `CC(C)[C@]1(O)CC[C@H]2C(=C[C@H](O)[C@@H]3[C@]2(C)CCC[C@@]3(C)C(=O)O)[C@H]1O` as the compound, how does the inhibition read?
**A.** Its inhibition is 37.2%.

**Q.** With `CC(C)[C@@]1(O)C=C2[C@H](O)C[C@@H]3[C@](C)(CCC[C@@]3(C)C(=O)O)[C@H]2C[C@@H]1O` [AQUILARABIETIC ACID B] as the compound, how does the inhibition read?
**A.** Its inhibition is 39.1%.

**Q.** Which inhibition does the source give for `CC(C)[C@@]12C=C3[C@H](O)C[C@@H]4[C@](C)(CCC[C@@]4(C)C(=O)O)[C@H]3C[C@@H]1OC(C)(C)O2` here?
**A.** The inhibition was 37.6%.

**Q.** Which inhibition does the source give for `CNCC[C@H](Oc1cccc2ccccc12)c1cccs1` here?
**A.** Its inhibition is 81.4%.

**Q.** With `CCO[C@H]1C[C@H]2C(=CC[C@@H]3[C@]2(C)CCC[C@@]3(C)C(=O)O)C=C1C(C)C` as the compound, how does the inhibition read?
**A.** The inhibition was 13.4%.

**Q.** Which inhibition does the source give for `CC(C)[C@@]1(O)C=C2[C@H](O)C[C@H]3[C@](C)(C(=O)O)CCC[C@]3(C)[C@@]2(O)CC1` [AQUILARABIETIC ACID A] here?
**A.** Its inhibition is 81.8%.
